One series concerns MCF-7 cells. Nature of the series: Cell viability assay (PrestoBlue), MCF-7. Type of series: cell-based, human. The settings on record: MCF-7, 72 h. The protocol:
(§1) Cell viability assays were carried out to investigate the anti-proliferative effect of the AGCs. […] Auranofin was used for comparative purposes. […] Cells were incubated with the compounds for 72 hours and viability was assessed with Presto Blue. […] As mentioned before, linkers bring considerable advantages in terms of ADC stability.
(§2) Cell viability analysis for all compounds and AGCs described.
(§3) MCF7, MCF10A and BT-474 were obtained from the American Type Culture Collection (ATCC) (Manassas, Va.) and cultured in Dulbecco's modified Eagle's medium (DMEM) (Mediatech) supplemented with 10% FBS, 1% NEAA and 1% penicillin-streptomycin (MCF7 AND MCF1 OA) or DME HG/F12K, NEAA, 2 mM glutamine, 10% FBS/PS and incubated at 37° C. and 5% CO2 in a humidified incubator.
(§4) After 72 h, cell viability was determined by means of the colorimetric cell viability assay PrestoBlue (Invitrogen, Carlsbad, Calif.) according to the manufacturer's intructions. EC50 were fit using GraphPad Prism 7 to best match the experimental data.
(§5) Tables 3 and Table 4 show EC50 Values (μM) in MCF7, MCF10A and BT474 cell lines determined with [AuCl(PPh3)] (DMF), [Au(mba)(PPh3)]

In the next series the test system is BT-474 cells. Put plainly: Cell viability assay (PrestoBlue), BT-474. Type of series: cell-based, human. The settings on record: BT-474, 72 h. As to the method: as §1, §2, §3, §4, §5
The next series deals with MCF-10A cells. Put plainly: Cell viability assay (PrestoBlue), MCF-10A. The format is cell-based, human. The settings on record: MCF-10A non-cancerous breast cell line, 72 h. The protocol: as §1, §2, §3, §4, §5
The conditions of series [1]: DMSO solution at room temperature; cited from earlier work.
The conditions of series [2]: humans, rheumatoid arthritis medication; cited from earlier work.

“And” between values parts separate entries of the source, which are not always exact repeats. Equal values may be shown once. A value given as a limit tells only on which side of the number the result lay.

In the case of [Au(mba)(PPh3)] [reference compound], the EC50 in the series on MCF-7 cells was 2.4 µM and 2.36 µM; in the series on BT-474 cells, 3.51 ± 0.16 µM; in the series with MCF-10A cells it was 5.52 ± 0.36 µM.
Consider `[Cl][Au].c1ccc(P(c2ccccc2)c2ccccc2)cc1` [[AuCl(PPh3)], reference compound], for which the 50% effective concentration (EC50) in the series with MCF-7 cells was 3.6 µM and 3.57 µM; in the series on BT-474 cells, 3.32 ± 0.1 µM; with MCF-10A cells, 18.9 ± 1.3 µM.
Turning to `CC[P](CC)(CC)=[Au][S][C@@H]1O[C@H](COC(C)=O)[C@@H](OC(C)=O)[C@H](OC(C)=O)[C@H]1OC(C)=O` [AF, [(2R,3R,4S,5R,6S)-3,4,5-tris(acetyloxy)-6-{[(triethyl-λ5-phosphanylidene)aurio]sulfanyl}-oxan-2-yl]methyl acetate], in series [1], the “time stable in solution” value is greater than 72 h. For the same molecule, in series [2], the “patients affected by most severe side effects (diarrhea and rashes)” value is recorded as 26-40%.

Usually EC50 stands for the concentration giving half of the maximal effect.

Source of the values: patent US11141490B2, “Antibody-drug conjugates based on gold compounds” (Research Foundation of the City University of New York, priority 2018, dated 2021).
